Data: patent publication US20250332173A1, “COMPOUNDS AND METHODS FOR MODULATING NUCLEIC ACID SPLICING” (REMIX THERAPEUTICS INC., priority 2021, published 2025)

What was measured:
HTT = assay: HiBiT protein abundance assay, HTT HiBiT K562 cell line; format: cell-based, human; conditions: HiBiT K562 cell line, 24 hours, top dose 10 μM; read-out: Effect on protein abundance, HTT (IC50 category)
How it was run: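 K562 knock-in lines with endogenous HiBiT-tagged target, 10,000 cells/well in IMDM + FBS, treated 24 h at 37° C with 10-point 3-fold dilutions (top 10 μM final; DMSO ≤0.25%). Lytic Nano-Glo HiBiT luminescence normalized to untagged K562 baseline and DMSO controls; IC50 = concentration giving 50% abundance via four-parameter fit.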

Target C = assay: HiBiT protein abundance assay, Target C (Promega Nano-Glo HiBiT Lytic Detection System, knock-in K562 cell line); format: cell-based, human; conditions: Homo sapiens, K562, 24 h, HiBiT K562 cell line, 24 hours, top dose 10 μM; read-out: Effect on protein abundance, Target C (IC50 category)
How it was run: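 Knock-in K562 cells carrying HiBiT-tagged Target C, 10,000 per well, treated 24 h at 37 °C with 10-point threefold dilutions (top 10 μM final, ≤0.25% DMSO). Lytic HiBiT luminescence read; response normalised to unmodified K562 and DMSO controls, four-parameter fit interpolated at 50% for IC50.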

| IC50 (HTT) | IC50 (Target C) | Compound |
| --- | --- | --- |
| 100 to 1000 nM | 1000 to 10000 nM | Cc1cn2cc(-c3cc(F)c4c(=O)n([C@@H]5CCNC5)ccc4c3)cc(F)c2n1 (single isomer, unassigned) [Compound 395] |
| 1000 to 10000 nM | 1000 to 10000 nM | Cc1cn2cc(-c3ccc4c(=O)n([C@@H]5CCCNC5)ccc4c3)cc(F)c2n1 (single isomer, unassigned) [Compound 403] |
| 1000 to 10000 nM | 1000 to 10000 nM | Cc1cn2nc(-c3cc(F)c4c(=O)n(C5CCNC5)ccc4c3)cc(C)c2n1 (stereo in doubt) [Compound 382, (R)-6-(2,8-dimethylimidazo[1,2-b]pyridazin-6-yl)-8-fluoro-2-(pyrrolidin-3-yl)isoquinolin-1(2H)-one] |
| < 100 nM | < 100 nM | Cc1cn2nc(-c3cc(C)c4c(=O)n(C5CCNC6(CC6)C5)ccc4c3)cc(C)c2n1 (stereo in doubt) [Compound 397, (S)-6-(2,8-dimethylimidazo[1,2-b]pyridazin-6-yl)-8-methyl-2-(4-azaspiro[2.5]octan-7-yl)isoquinolin-1(2H)-one] |
| < 100 nM | < 100 nM | Cc1cn2nc(-c3cc(C)c4c(=O)n(C5CCNC6(CC6)C5)ccc4c3)cc(C)c2n1 (stereo in doubt) [Compound 398, (R)-6-(2,8-dimethylimidazo[1,2-b]pyridazin-6-yl)-8-methyl-2-(4-azaspiro[2.5]octan-7-yl)isoquinolin-1(2H)-one] |
| 100 to 1000 nM | 1000 to 10000 nM | Cc1cn2nc(-c3ccc4c(=O)n(C5CCCNC5)ccc4c3)cc(C)c2n1 (stereo in doubt) [Compound 410, 6-{2,8-dimethylimidazo[1,2-b]pyridazin-6-yl}-2-[(3S)-piperidin-3-yl]isoquinolin-1-one] |
| 1000 to 10000 nM | 1000 to 10000 nM | Cc1cn2nc(-c3ccc4c(=O)n(C5CCCNC5)ccc4c3)cc(C)c2n1 (stereo in doubt) [Compound 411, 6-{2,8-dimethylimidazo[1,2-b]pyridazin-6-yl}-2-[(3R)-piperidin-3-yl]isoquinolin-1-one] |
| > 10000 nM | > 10000 nM | Cn1cc2cc(-n3cnc4cc(NC5CCNCC5)ccc4c3=O)ccc2n1 [Compound 162] |
| > 10000 nM | > 10000 nM | CN1CCC(Nc2ccc3c(=O)n(-c4ccc5nn(C)cc5c4)cnc3c2)CC1 [Compound 163] |
| > 10000 nM | > 10000 nM | Cc1cc(-c2ccc3c(=O)n(C4CCN(C)CC4)cnc3n2)cc2cn(C)nc12 [Compound 173] |
| 100 to 1000 nM | 100 to 1000 nM | Cc1cc(-c2ccc3c(=O)n(C4CCNCC4)cnc3c2)cc2cn(C)nc12 [Compound 174] |
| > 10000 nM | > 10000 nM | Cc1cn2cc(-c3cc(N)c4c(=O)n(C5CCNCC5)cnc4c3)cc(C#N)c2n1 [Compound 364, 6-[5-amino-4-oxo-3-(piperidin-4-yl)quinazolin-7-yl]-2-methylimidazo[1,2-a]pyridine-8-carbonitrile] |
| 100 to 1000 nM | 100 to 1000 nM | Cc1cn2cc(-c3cc(F)c4c(=O)n(C5CCOCC5)cnc4c3)cc(C#N)c2n1 [Compound 367, 6-[5-fluoro-3-(oxan-4-yl)-4-oxoquinazolin-7-yl]-2-methylimidazo[1,2-a]pyridine-8-carbonitrile] |
| < 100 nM | < 100 nM | Cc1cn2cc(-c3cc(F)c4c(=O)n(C5CCNCC5)ccc4c3)cc(F)c2n1 [Compound 370] |
| 1000 to 10000 nM | 1000 to 10000 nM | Cc1cc(-c2ccc3c(=O)n(C4CCNC5(COC5)C4)cnc3c2)cc2cn(C)nc12 (stereo not drawn) [Compound 375] |
| 1000 to 10000 nM | 1000 to 10000 nM | Cc1cc(-c2ccc3c(=O)n([C@@H]4CCNC[C@H]4F)ncc3c2)cc2cn(C)nc12 [Compound 378] |
| < 100 nM | < 100 nM | Cc1cn2nc(-c3cc(F)c4c(=O)n(C5CCNC6(CC6)C5)ccc4c3)cc(C)c2n1 (stereo not drawn) [Compound 380, 6-(2,8-dimethylimidazo[1,2-b]pyridazin-6-yl)-8-fluoro-2-(4-azaspiro[2.5]octan-7-yl)isoquinolin-1(2H)-one] |
| < 100 nM | 100 to 1000 nM | Cc1cn2nc(-c3ccc4c(=O)n(C5CCNCC5)cc(C)c4c3)cc(C)c2n1 [Compound 381, 6-{2,8-dimethylimidazo[1,2-b]pyridazin-6-yl}-4-methyl-2-(piperidin-4-yl)isoquinolin-1-one] |
| < 100 nM | < 100 nM | Cc1cn2nc(-c3ccc4c(=O)n(C5CCNC6(CC6)C5)ccc4c3)cc(C)c2n1 (stereo not drawn) [Compound 384] |
| < 100 nM | < 100 nM | Cc1cn2nc(-c3cc(C#N)c4c(=O)n(C5CCNC6(CC6)C5)ccc4c3)cc(C)c2n1 (stereo not drawn) [Compound 387] |

The next lines start with the compound.

| Compound | IC50 (HTT) | IC50 (Target C) |
| --- | --- | --- |
| Cc1cn2cc(-c3cc(F)c4c(=O)n([C@H]5CCNC5)ccc4c3)cc(F)c2n1 (single isomer, unassigned) [Compound 396] | 100 to 1000 nM | 100 to 1000 nM |
| Cc1cn2nc(-c3cc(F)c4c(=O)n([C@@H]5CCNC6(CC6)C5)ccc4c3)cc(C)c2n1 (single isomer, unassigned) [Compound 425] | < 100 nM | < 100 nM |
| Cc1cn2nc(-c3cc(F)c4c(=O)n([C@H]5CCNC6(CC6)C5)ccc4c3)cc(C)c2n1 (single isomer, unassigned) [Compound 426] | < 100 nM | < 100 nM |
| Cc1cn2nc(-c3ccc4c(=O)n([C@@H]5CCNC6(CC6)C5)ncc4c3)cc(C)c2n1 (stereo in doubt) [Compound 368, 2-[(7R)-4-azaspiro[2.5]octan-7-yl]-6-{2,8-dimethylimidazo[1,2-b]pyridazin-6-yl}phthalazin-1-one] | < 100 nM | < 100 nM |
| Cc1cn2nc(-c3cc(F)c4c(=O)n(C5CCNC5)ccc4c3)cc(C)c2n1 (stereo in doubt) [Compound 392, (S)-6-(2,8-dimethylimidazo[1,2-b]pyridazin-6-yl)-8-fluoro-2-(pyrrolidin-3-yl)isoquinolin-1(2H)-one] | 1000 to 10000 nM | 1000 to 10000 nM |
| Cc1cn2cc(-c3cc(F)c4c(=O)n(C5CCOC5)cnc4c3)cc(C#N)c2n1 (stereo in doubt) [Compound 499, (R)-6-(5-fluoro-4-oxo-3-(tetrahydrofuran-3-yl)-3,4-dihydroquinazolin-7-yl)-2-methylimidazo[1,2-a]pyridine-8-carbonitrile] | 100 to 1000 nM | 100 to 1000 nM |
| Cc1cn2cc(-c3cc(F)c4c(=O)n(C5CCOC5)cnc4c3)cc(C#N)c2n1 (stereo in doubt) [Compound 500, (S)-6-(5-fluoro-4-oxo-3-(tetrahydrofuran-3-yl)-3,4-dihydroquinazolin-7-yl)-2-methylimidazo[1,2-a]pyridine-8-carbonitrile] | 100 to 1000 nM | 100 to 1000 nM |
| Cn1cc2cc(-n3cnc4cc(C5=CC6CCC(C5)N6)ccc4c3=O)ccc2n1 (stereo not drawn) [Compound 160] | > 10000 nM | > 10000 nM |
| CN1C2C=C(c3ccc4c(=O)n(-c5ccc6nn(C)cc6c5)cnc4c3)CC1CC2 (stereo not drawn) [Compound 161] | > 10000 nM | > 10000 nM |
| Cn1cc2cc(-n3cnc4cc(C5CCNCC5)ccc4c3=O)ccc2n1 [Compound 172] | > 10000 nM | > 10000 nM |
| Cn1cc2c(n1)CCN(c1cc(F)c3c(=O)n(C4CCNCC4)cnc3c1)C2 [Compound 365, 5-fluoro-7-(2-methyl-2,4,6,7-tetrahydro-5H-pyrazolo[4,3-c]pyridin-5-yl)-3-(piperidin-4-yl)quinazolin-4(3H)-one] | > 10000 nM | > 10000 nM |
| Cc1cn2cc(-c3cc(F)c4c(=O)n(C5CCOC5)cnc4c3)cc(C#N)c2n1 (stereo not drawn) [Compound 366, 6-[5-fluoro-4-oxo-3-(oxolan-3-yl)quinazolin-7-yl]-2-methylimidazo[1,2-a]pyridine-8-carbonitrile] | 1000 to 10000 nM | 1000 to 10000 nM |
| Cc1cn2nc(-c3ccc4c(=O)n([C@H]5CCNC6(CC6)C5)ncc4c3)cc(C)c2n1 [Compound 369, 2-[(7S)-4-azaspiro[2.5]octan-7-yl]-6-{2,8-dimethylimidazo[1,2-b]pyridazin-6-yl}phthalazin-1-one] | 100 to 1000 nM | 1000 to 10000 nM |
| Cc1cn2nc(-c3ccc4c(=O)n([C@H]5CCNC[C@H]5F)cnc4c3)cc(C)c2n1 [Compound 372] | 100 to 1000 nM | 1000 to 10000 nM |
| Cc1cn2nc(-c3ccc4c(=O)n([C@@H]5CCNC[C@H]5F)ncc4c3)cc(C)c2n1 [Compound 379] | 100 to 1000 nM | 100 to 1000 nM |
| Cc1cn2cc(-c3cc(F)c4c(=O)n(C5CCNCC5)ccc4c3)cc(C#N)c2n1 [Compound 383, 6-[8-fluoro-1-oxo-2-(piperidin-4-yl)isoquinolin-6-yl]-2-methylimidazo[1,2-a]pyridine-8-carbonitrile] | 100 to 1000 nM | 100 to 1000 nM |
| Cc1cn2nc(-c3cc(Cl)c4c(=O)n(C5CCNCC5)ccc4c3)cc(C)c2n1 [Compound 390, 8-chloro-6-{2,8-dimethylimidazo[1,2-b]pyridazin-6-yl}-2-(piperidin-4-yl)isoquinolin-1-one; trifluoroacetaldehyde] | < 100 nM | < 100 nM |
| Cc1cn2nc(-c3cc(O)c4c(=O)n(C5CCNCC5)ccc4c3)cc(C)c2n1 [Compound 391, 6-(2,8-dimethylimidazo[1,2-b]pyridazin-6-yl)-8-hydroxy-2-(piperidin-4-yl)isoquinolin-1(2H)-one] | < 100 nM | < 100 nM |
| CC(=O)c1cc(-c2cc(F)c3c(=O)n(C4CCNCC4)ccc3c2)cn2cc(C)nc12 [Compound 393, 6-{8-acetyl-2-methylimidazo[1,2-a]pyridin-6-yl}-8-fluoro-2-(piperidin-4-yl)isoquinolin-1-one 2,2,2-trifluoroacetate] | 100 to 1000 nM | 100 to 1000 nM |
